Drawing on US20200138827A1, “SMALL MOLECULE MODULATORS OF HUMAN STING” (Curadev Pharma Limited, priority 2017, published 2020), this text covers EC50 for 30 molecules.

The structures appear in SMILES notation.

The target in the first assay is T1, WT/R232 STING protein (Homo sapiens, UniProt Q86WV6, H232R).
T1 construct: host or cells: HEK293T
T1 sequence (Q86WV6 whole entry H232R): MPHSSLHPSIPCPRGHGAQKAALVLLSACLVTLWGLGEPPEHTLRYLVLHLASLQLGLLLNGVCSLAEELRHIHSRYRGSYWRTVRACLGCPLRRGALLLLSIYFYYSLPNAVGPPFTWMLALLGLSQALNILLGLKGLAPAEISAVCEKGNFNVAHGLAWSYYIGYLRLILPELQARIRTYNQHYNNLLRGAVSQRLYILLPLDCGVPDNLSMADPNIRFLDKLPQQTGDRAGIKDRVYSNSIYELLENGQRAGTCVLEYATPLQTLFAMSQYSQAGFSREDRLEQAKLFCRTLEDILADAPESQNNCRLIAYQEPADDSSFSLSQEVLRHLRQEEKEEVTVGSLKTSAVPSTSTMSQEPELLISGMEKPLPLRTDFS
Briefly: Luciferase reporter assay in HEK293T-hSTING-Luciferase cells, WT/R232. In kind it is cell-based. The conditions noted are these: 20 hr stimulation, read-out: R232 Activity (EC50 range). An outline of the steps:
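Clonal HEK293T cells stably expressing human STING R232 plus an ISRE/ISG54-driven luciferase reporter, 5×10^5 per well, stimulated with compounds for 20 h. Secreted luciferase in supernatant measured by luminescence; […].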
On the technique in general: In a reporter assay the amount or activity of a reporter protein is the signal.
Broadly, the EC50 is the concentration needed to bring the measured effect to its halfway point. As to `CC1Sc2ccc(C(=O)NCc3c(F)cc(F)cc3F)cc2N(Cc2ccccc2F)C1=O` (stereo not drawn) [Example 140, 4-(2-fluorobenzyl)-2-methyl-3-oxo-N-(2,4,6-trifluorobenzyl)-3,4-dihydro-2H-benzo[b-1,4]thiazine-6-carboxamide], the half-maximal effective concentration (EC50) is less than 1 µM.

For the molecule `O=C(CN1CCSc2ccc(C(=O)NCc3ccco3)cc21)c1ccccc1` [Example 249, N-(furan-2-ylmethyl)-4-(2-oxo-2-phenylethyl)-3,4-dihydro-2H-benzo[b][1,4]thiazine-6-carboxamide], the 50% effective concentration (EC50) was greater than 10 µM.

For the molecule `O=C(NCc1ccco1)c1ccc2c(c1)N(Cc1ccc(Cl)cc1)CCS2` [Example 250, 4-(4-Chlorobenzyl)-N-(furan-2-ylmethyl)-3,4-dihydro-2H-benzo[b-1,4]thiazine-6-carboxamide], the EC50 is greater than 10 µM.

For the molecule `O=C(NCc1ccco1)c1ccc2c(c1)N(Cc1ccccc1)CC[S+]2[O-]` (stereo not drawn) [Example 251, 4-Benzyl-N-(furan-2-ylmethyl)-3,4-dihydro-2H-benzo[b-1,4]thiazine-6-carboxamide 1-oxide], the concentration for a half-maximal effect (EC50) is greater than 10 µM.

As to `O=C(NCc1ccco1)c1ccc2c(c1)N(Cc1ccccc1)CCS2(=O)=O` [Example 252, 4-Benzyl-N-(furan-2-ylmethyl)-3,4-dihydro-2H-benzo[b-1,4]thiazine-6-carboxamide 1,1-dioxide], the EC50 was greater than 10 µM.

Take `O=C(NCc1ccco1)c1ccc2c(c1)N(C(=O)c1ccccc1F)CCS2` [Example 253, 4-(2-Fluorobenzoyl)-N-(furan-2-ylmethyl)-3,4-dihydro-2H-benzo[b-1,4]thiazine-6-carboxamide]: the EC50 was greater than 10 µM.

With `O=C(NCc1ccco1)c1ccc2c(c1)N(C(=O)c1ccccc1F)CCS2(=O)=O` [Example 254, 4-(2-Fluorobenzoyl)-N-(furan-2-ylmethyl)-3,4-dihydro-2H-benzo[b-1,4]thiazine-6-carboxamide 1,1-dioxide], the EC50 was greater than 10 µM.

As to `O=C(NCc1ccco1)c1ccc2c(c1)N(C(=O)c1ccccc1)CCS2` [Example 255, 4-benzoyl-N-(furan-2-ylmethyl)-3,4-dihydro-2H-benzo[b][1,4]thiazine-6-carboxamide], the EC50 was greater than 10 µM.

Consider `O=C(NCc1ccco1)c1ccc2c(c1)N(C(=O)c1c(F)cccc1Cl)CCS2` [Example 256, 4-(2-chloro-6-fluorobenzoyl)-N-(furan-2-ylmethyl)-3,4-dihydro-2H-benzo[b][1,4]thiazine-6-carboxamide], for which the EC50 is greater than 10 µM.

In the case of `O=C(NCC1CCCCC1)c1ccc2c(c1)N(C(=O)c1c(F)cccc1Cl)CCS2` [Example 257, 4-(2-chloro-6-fluorobenzoyl)-N-(cyclohexylmethyl)-3,4-dihydro-2H-benzo[b][1,4]thiazine-6-carboxamide], the half-maximal effective concentration (EC50) lay in the range of 1 to 10 µM.

In the case of `CC1CN(C(=O)Cc2ccccc2)c2cc(C(=O)NCc3c(F)cc(F)cc3F)ccc2S1` (stereo not drawn) [Example 259, 2-methyl-4-(2-phenylacetyl)-N-(2,4,6-trifluorobenzyl)-3,4-dihydro-2H-benzo[b][1,4]thiazine-6-carboxamide], the half-maximal effective concentration (EC50) was greater than 10 µM.

For the molecule `O=C(NCc1c(F)cc(F)cc1F)c1ccc2c(c1)N(C(=O)c1ccncc1)CCS2` [Example 260, 4-isonicotinoyl-N-(2,4,6-trifluorobenzyl)-3,4-dihydro-2H-benzo[b][1,4]thiazine-6-carboxamide], the 50% effective concentration (EC50) is greater than 10 µM.

In the case of `O=C(NCc1c(F)cc(F)cc1F)c1ccc2c(c1)N(S(=O)(=O)c1ccccc1)CCS2` [Example 261, 4-(Phenylsulfonyl)-N-(2,4,6-trifluorobenzyl)-3,4-dihydro-2H-benzo[b-1,4]thiazine-6-carboxamide], the concentration giving a half-maximal response (EC50) lay in the range of 1 to 10 µM.

As for `O=C(NCc1c(F)cc(F)cc1F)c1ccc2c(c1)N(S(=O)(=O)c1cc(F)cc(F)c1)CCS2` [Example 262, 4-((1,5-Difluorophenyl)sulfonyl)-N-(2,4,6-trifluorobenzyl)-3,4-dihydro-2H-benzo[b-1,4]thiazine-6-carboxamide], the concentration for a half-maximal effect (EC50) is greater than 10 µM.

For the molecule `O=C(NCc1ccco1)c1ccc2c(c1)N(C(=O)c1ccccc1F)CCO2` [Example 263, 4-(2-fluorobenzoyl)-N-(furan-2-ylmethyl)-3,4-dihydro-2H-benzo[b-1,4]oxazine-6-carboxamide], the concentration for a half-maximal effect (EC50) is greater than 10 µM.

For the molecule `O=C(NCc1c(F)cc(F)cc1F)c1ccc2c(c1)N(C(=O)c1c(F)cccc1Cl)CCO2` [Example 264, 4-(2-chloro-6-fluorobenzoyl)-N-(2,4,6-trifluorobenzyl)-3,4-dihydro-2H-benzo[b-1,4]oxazine-6-carboxamide], the concentration giving a half-maximal response (EC50) was greater than 10 µM.

Consider `O=C(NCc1ccco1)c1ccc2c(c1)N(C(=O)c1c(F)cccc1Cl)CCO2` [Example 265, 4-(2-chloro-6-fluorobenzoyl)-N-(furan-2-ylmethyl)-3,4-dihydro-2H-benzo[b-1,4]oxazine-6-carboxamide], for which the EC50 was greater than 10 µM.

On to `O=C(NCc1ccco1)c1ccc2c(c1)N(Cc1ccccc1)C(=S)CS2` [Example 266, 4-Benzyl-N-(furan-2-ylmethyl)-3-thioxo-3,4-dihydro-2H-benzo[b-1,4]thiazine-6-carboxamide], for which the concentration for a half-maximal effect (EC50) is greater than 10 µM.

In the case of `O=C(NCc1ccco1)c1ccc2c(c1)N(Cc1c(F)cccc1Cl)C(=O)CC2` [Example 268, 1-(2-chloro-6-fluorobenzyl)-N-(furan-2-ylmethyl)-2-oxo-1,2,3,4-tetrahydroquinoline-7-carboxamide], the EC50 was greater than 10 µM.

In the case of `O=C(NCc1cc2ccncc2o1)c1ccc2c(c1)N(Cc1cc(F)cc(F)c1)C(=O)CC2` [Example 272, 1-(3,5-difluorobenzyl)-N-(furo[2,3-c]pyridin-2-ylmethyl)-2-oxo-1,2,3,4-tetrahydroquinoline-7-carboxamide], the concentration giving a half-maximal response (EC50) is greater than 10 µM.

In the case of `O=C(NCc1cc2cnccc2o1)c1ccc2c(c1)N(Cc1cc(F)cc(F)c1)C(=O)CC2` [Example 273, 1-(3,5-difluorobenzyl)-N-(furo[3,2-c]pyridin-2-ylmethyl)-2-oxo-1,2,3,4-tetrahydroquinoline-7-carboxamide], the half-maximal effective concentration (EC50) was greater than 10 µM.

Consider `O=C(NCc1cc2cccnc2o1)c1ccc2c(c1)N(Cc1cc(F)cc(F)c1)C(=O)CC2` [Example 274, 1-(3,5-difluorobenzyl)-N-(furo[2,3-b]pyridin-2-ylmethyl)-2-oxo-1,2,3,4-tetrahydroquinoline-7-carboxamide], for which the concentration for a half-maximal effect (EC50) was greater than 10 µM.

Consider `O=C(NCc1cc2ncccc2o1)c1ccc2c(c1)N(Cc1cc(F)cc(F)c1)C(=O)CC2` [Example 275, 1-(3,5-difluorobenzyl)-N-(furo[3,2-b]pyridin-2-ylmethyl)-2-oxo-1,2,3,4-tetrahydroquinoline-7-carboxamide], for which the 50% effective concentration (EC50) is greater than 10 µM.

`O=C(NCc1c(F)cc(F)cc1F)c1cnc2c(c1)N(Cc1cc(F)cc(F)c1)C(=O)CC2` [Example 276, 5-(3,5-Difluorobenzyl)-6-oxo-N-(2,4,6-trifluorobenzyl)-5,6,7,8-tetrahydro-1,5-naphthyridine-3-carboxamide]: the EC50 is 1 to 10 µM.

Take `O=C(NCc1ccc(F)cc1F)c1cnc2c(c1)N(Cc1cc(F)cc(F)c1)C(=O)CC2` [Example 277, N-(2,4-difluorobenzyl)-5-(3,5-difluorobenzyl)-6-oxo-5,6,7,8-tetrahydro-1,5-naphthyridine-3-carboxamide]: the EC50 lay in the range of 1 to 10 µM.

For the molecule `O=C(NCc1cc2ccccc2o1)c1cnc2c(c1)N(Cc1cc(F)cc(F)c1)C(=O)CC2` [Example 278, N-(benzofuran-2-ylmethyl)-5-(3,5-difluorobenzyl)-6-oxo-5,6,7,8-tetrahydro-1,5-naphthyridine-3-carboxamide], the EC50 was greater than 10 µM.

On to `O=C(NCc1ccc(F)cc1F)c1cnc2c(c1)N(Cc1ccc(F)cc1)C(=O)CC2` [Example 280, N-(2,4-difluorobenzyl)-5-(4-fluorobenzyl)-6-oxo-5,6,7,8-tetrahydro-1,5-naphthyridine-3-carboxamide], for which the EC50 is greater than 10 µM.

As to `O=C(NCc1ccc(F)cc1F)c1ccc2c(n1)N(Cc1ccc(F)cc1)C(=O)CC2` [Example 282, N-(2,4-difluorobenzyl)-8-(4-fluorobenzyl)-7-oxo-5,6,7,8-tetrahydro-1,8-naphthyridine-2-carboxamide], the concentration giving a half-maximal response (EC50) was 1 to 10 µM.

In the case of `O=C(NCc1c(F)cc(F)cc1F)c1ccc2c(n1)N(Cc1cc(F)cc(F)c1)C(=O)CC2` [Example 283, (3,5-difluorobenzyl)-7-oxo-N-(2,4,6-trifluorobenzyl)-5,6,7,8-tetrahydro-1,8-naphthyridine-2-carboxamide], the EC50 was in the range of 1 to 10 µM.

The subject of the next assay is IRF pathway. Briefly: Reporter gene expression assay in THP1-Dual cells, IRF axis (secreted Lucia luciferase). The class given is cell-based, human. The note with it: Homo sapiens, THP1-Dual, read-out: THP-IRF activity (EC50 range). Here is the method: (§1) THP1-Dual™ cells (Invivogen) were derived from the human THP-1 monocyte cell line by stable integration of two inducible reporter constructs. As a result, THP1-Dual™ cells allow the simultaneous study of the NF-κB pathway, by monitoring the activity of secreted SEAP, and the IRF pathway, by assessing the activity of a secreted luciferase (Lucia). […] THP1-Dual™ cells were seeded in 384-well plates in growth medium and stimulated with novel compounds. After […] of stimulation supernatant were removed and reporter proteins were readily measured in the cell culture supernatant using QUANTI-Blue™ (Invivogen), a SEAP detection reagent, and QUANTI-Luc™ (Invivogen), a luciferase detection reagent on a Spectramax i3X luminometer.
With `CC1Sc2ccc(C(=O)NCc3c(F)cc(F)cc3F)cc2N(Cc2ccccc2F)C1=O` (stereo not drawn) [Example 140, 4-(2-fluorobenzyl)-2-methyl-3-oxo-N-(2,4,6-trifluorobenzyl)-3,4-dihydro-2H-benzo[b-1,4]thiazine-6-carboxamide], the EC50 was in the range of 1 to 10 µM.

The assay is the same for the next values; noted with them: read-out: THP-IRF activity (EC50 range).
Take `CC1(CCl)Sc2ccc(C(=O)NCc3ccc(F)cc3F)cc2N(Cc2c(F)cccc2Cl)C1=O` (stereo not drawn) [Example 150, 4-(2-chloro-6-fluorobenzyl)-2-(chloromethyl)-N-(2,4-difluorobenzyl)-2-methyl-3-oxo-3,4-dihydro-2H-benzo[b][1,4] thiazine-6-carboxamide]: the 50% effective concentration (EC50) fell in the range of 1 to 10 µM.

A further assay relates to NF-κB pathway. Description: Reporter gene expression assay in THP1-Dual cells, NFkB axis (secreted SEAP). In kind it is cell-based, human. The note with it: Homo sapiens, THP1-Dual, read-out: THP-NFKB activity (EC50 range). On the procedure:
as §1
With `CC1Sc2ccc(C(=O)NCc3c(F)cc(F)cc3F)cc2N(Cc2ccccc2F)C1=O` (stereo not drawn) [Example 140, 4-(2-fluorobenzyl)-2-methyl-3-oxo-N-(2,4,6-trifluorobenzyl)-3,4-dihydro-2H-benzo[b-1,4]thiazine-6-carboxamide], the concentration giving a half-maximal response (EC50) was 1 to 10 µM.

Still in this assay, the particulars now being: read-out: THP-NFKB activity (EC50 range).
Consider `CC1(CCl)Sc2ccc(C(=O)NCc3ccc(F)cc3F)cc2N(Cc2c(F)cccc2Cl)C1=O` (stereo not drawn) [Example 150, 4-(2-chloro-6-fluorobenzyl)-2-(chloromethyl)-N-(2,4-difluorobenzyl)-2-methyl-3-oxo-3,4-dihydro-2H-benzo[b][1,4] thiazine-6-carboxamide], for which the EC50 was 1 to 10 µM.
